Experimental data taken from patent publication US4426378A, “Thyrotropin releasing hormone in therapy of shock and as a central nervous system stimulant” (The United States of America as represented by the …, priority 1981, dated 1984).

Columns and labels:
[1] = test system: rats; test: Behavioral effects of intravenous TRH (CNS stimulant); assay type: in vivo
Description: (§1) Follow-up studies were performed to evaluate other physiological parameters, TRH dose-response characteristics, and the effect of TRH on endotoxic shock survival in the rat. The experiments were conducted identically as described above in Experiment No. 1 for initial endotoxic shock studies, except heart rate, pulse pressure, respiration rate, and behavioral measures were examined following treatment with intravenous saline or TRH (0.2, 0.63, 2.0, 6.34, or 20.0 mg per kilogram body weight). Survival at 2 hours post drug treatment was also assessed. […] Pressure fell from 98.0±1.3(SE) millimeters of mercury (mm Hg) to 70.7±1.6 (SE) mm Hg, student's t=13.3, p 0.001.
In addition to its effects upon physiological parameters, intravenous TRH also produced a variety of behavioral effects indicative of its action as a CNS stimulant.

[2] = test system: rats subjected to endotoxic shock; test: Endotoxic shock (E. coli lipopolysaccharide endotoxin i.v.), Experiment No. 1; assay type: in vivo, male Sprague-Dawley rats; settings: TRH 2 mg/kg i.v.
Description: (§2) Tail-artery and external-jugular vein cannulae were implanted in male Sprague-Dawley rats (250-300 g; Zivic-Miller Labs) according to standard surgical techniques. Twenty-four hours later, the arterial cannula were connected to a microtransducer (Narco Biosystems, RP 1500 attached to a Beckman physiograph, type R). This arrangement permitted continuous measurement of blood pressure and heart rate in awake, freely moving rats in their home cages.
A second group of rats was subjected to endotoxic vasogenic, septic) shock by the i.v. administration of Escherichia coli lipopolysaccharide endotoxin (15 mg/kg; Difco, control #654109). In these animals, MAP fell to 67-70 mm Hg, which was approximately 26% (24 mm Hg) below baseline levels of 92.7±1.9 mm Hg (n=22). These rats, randomly divided into two groups, were treated with either i.v. TRH (2 mg/kg, n=13) or an equal volume of i.v. saline (1.0 ml/kg, n=11), followed by a 0.2 ml cannula flush.

[3] = test system: rats; test: Escape from enclosure with heated floor (53° C.); assay type: in vivo
Description: (§3) To confirm the lack of effect of TRH upon analgesic responses, an additional group of rats was equipped with intravenous cannulae only. One day later, rats were divided into 3 groups (n=6/group). Group one received TRH alone (2.0 mg/kg--a dose with therapeutic effects in shock), group two received morphine sulfate (4 mg per kg) followed by TRH (2.0 mg per kg), and group three got morphine sulfate alone (4.0 mg per kg). Pain latencies were determined by applying a thermal stimulus to the tail, tail-flick procedure, FIG. 4a, and by measuring how long required for a rat to escape from an enclosure with a heated floor (53° C.), FIG. 4b.

[4] = test system: control rats not subjected to shock; test: Cardiovascular effects of i.v. TRH in control rats not subjected to shock; assay type: in vivo, male Sprague-Dawley rats; settings: TRH 2 mg/kg i.v.
Description: as §2
In control rats which were not subjected to shock, the cardiovascular effects of intravenous (i.v.) TRH alone were determined. A dose of 2 mg/kg body weight TRH (Beckman Labs) was injected, followed by a cannula flush (0.2 ml saline) to ensure complete drug delivery. Cardiovascular parameters were monitored for two hours. TRH administration caused a significant increase in mean arterial pressure (MAP) of 11.1±1.5 mm Hg (n-10, Student's t=7.25, p 0.001), with peak effects observed at 5-minute post-injection and persisting for 30 minutes (FIG. 1).

[5] = test system: rats subjected to hemorrhagic shock; test: Hemorrhagic shock, Experiment No. 3; assay type: in vivo; settings: TRH 2 mg/kg i.v.
Description: Another group of rats was subjected to hemorrhagic shock according to our previous experimental design. In a total of 27 rats, blood was withdrawn from the indwelling external jugular vein cannula; MAP fell from 96.5±1.6 mm Hg to 37.2±1.0 mm Hg where it was maintained for 20 minutes. A total of […] (body weight) of blood was removed, a volume approximating 45% of estimated total blood volume. Following the 20 minutes of controlled oligemia, animals were treated with either i.v. TRH (2 mg/kg, m=15) or an equal volume of i.v. saline (1.0 ml/kg, n=12) followed by a 0.2 ml cannula flush. Shed blood was not returned. […] The duration of this effect was about 30 minutes, approximately equivalent to the duration of the pressor response to TRH in normotensive rats not subjected to shock, FIG. 3a. In this model, saline-treated rats also experienced an increase in MAP, a consequence of the fluid volume infused.

[6] = test system: rats; test: Tail-flick procedure (thermal stimulus to the tail); assay type: in vivo; settings: n=6
Description: as §3

[7] = test system: rats subjected to endotoxic shock; test: Endotoxic shock follow-up: dose-response, cardiorespiratory variables and survival, Experiment No. 2; assay type: in vivo, rat; settings: for pulse pressure / change in mean arterial pressure / respiratory rate / heart rate: 15 min following treatment; for survival, alive/dead: 2 hrs following treatment (saline 4/4)
Description: as §1
When saline-control rat mortality was compared to mortality in all TRH-treated animals over the 2 hour measurement interval, there was a significant decrease in the lethal effects of endotoxemia produced by a single injection of this substance (Fisher exact probability, p=0.01).

NC(=O)[C@@H]1CCCN1C(=O)[C@H](Cc1c[nH]cn1)NC(=O)[C@@H]1CCC(=O)N1 [TRH, L-pyroglutamyl-L-histidyl-L-proline amide]
lowest dose at which wet-dog shaking behavior was observed ([1]; intravenous TRH): 0.63 mg per kg
tail-rattling, oral "chewing" stereotypies, and piloerection ([1]; intravenous TRH 6.34 or 20.0 mg per kg body weight): frequently observed
increase in MAP ([2]; n=13, average during first 30 minutes post-treatment, endotoxin 15 mg/kg): 20-25 mm Hg
MAP area scores vs saline ([2]; triangulation of response-time data, Student's t=5.66, p<0.001): significant differences between the two treatment groups
pain latency, escape from heated floor ([3]; TRH alone 2.0 mg/kg i.v., n=6, 53° C.): no effect
effect on morphine-induced analgesia, escape from heated floor ([3]; morphine sulfate 4 mg per kg followed by TRH 2.0 mg per kg, n=6): did not alter the intensity or duration of morphine-induced analgesia
persistence of MAP increase ([4]; control rats): 30 min
time of peak effect on MAP post-injection ([4]; control rats): 5 min
increase in mean arterial pressure (MAP) ([4]; normotensive control rats, n=10): 11.1±1.5 mm Hg
duration of MAP effect [5]: about 30 minutes
MAP higher than saline-control rats ([5]; n=15, first 15 minutes following injection): 20-25 mm Hg
MAP area scores vs saline ([5]; Student's t=2.11, p<0.05): significantly greater
pain latency, tail-flick ([6]; TRH alone 2.0 mg/kg i.v.): no effect
effect on morphine-induced analgesia, tail-flick ([6]; morphine sulfate 4 mg per kg followed by TRH 2.0 mg per kg): did not alter the intensity or duration of morphine-induced analgesia
TRH dose vs improvement in MAP ([7]; 15 minutes following treatment, n=34, r=0.43, p<0.02): significant dose-response correlation
pulse pressure ([7]; TRH 0.20 mg/Kg IV, n=8, spread ±2.9): 24.4 mm Hg
change in mean arterial pressure ([7]; TRH 0.20 mg/Kg IV, n=8, spread ±5.1): 21.4 mm Hg
respiratory rate ([7]; TRH 0.20 mg/Kg IV, n=8, spread ±6.8): 107.0 breaths/min.
heart rate ([7]; TRH 0.20 mg/Kg IV, n=8, spread ±16.8): 465.0 beats/min
survival, alive/dead ([7]; TRH 0.20 mg/Kg): 7/1
respiratory rate ([7]; TRH 0.63 mg/Kg IV, n=8, spread ±4.0): 109.0 breaths/min.
change in mean arterial pressure ([7]; TRH 0.63 mg/Kg IV, n=8, spread ±5.2): 20.9 mm Hg
pulse pressure ([7]; TRH 0.63 mg/Kg IV, n=8, spread ±5.7): 36.2 mm Hg
heart rate ([7]; TRH 0.63 mg/Kg IV, n=8, spread ±22.4): 470.0 beats/min
survival, alive/dead ([7]; TRH 0.63 mg/Kg): 8/0
pulse pressure ([7]; TRH 2.00 mg/Kg IV, n=8, spread ±3.9): 33.1 mm Hg
change in mean arterial pressure ([7]; TRH 2.00 mg/Kg IV, n=8, spread ±5.1): 24.2 mm Hg
respiratory rate ([7]; TRH 2.00 mg/Kg IV, n=8, spread ±6.9): 125.0 breaths/min.
heart rate ([7]; TRH 2.00 mg/Kg IV, n=8, spread ±24.0): 517.5 beats/min
survival, alive/dead ([7]; TRH 2.00 mg/Kg): 7/1
change in mean arterial pressure ([7]; TRH 6.34 mg/Kg IV, n=8, spread ±3.7): 35.1 mm Hg
pulse pressure ([7]; TRH 6.34 mg/Kg IV, n=8, spread ±4.1): 37.5 mm Hg
respiratory rate ([7]; TRH 6.34 mg/Kg IV, n=8, spread ±4.3): 147.0 breaths/min.
heart rate ([7]; TRH 6.34 mg/Kg IV, n=8, spread ±21.0): 530.0 beats/min
survival, alive/dead ([7]; TRH 6.34 mg/Kg): 8/0
effect on pulse pressure and heart rate ([7]; TRH i.v., endotoxic shock): increased pulse pressure and heart rate
effect on respiration rate ([7]; TRH i.v., endotoxic shock): increased in a dose-related manner
survival following endotoxic shock ([7]; all TRH-treated vs saline-control, 2 hour interval, single injection, Fisher exact probability p=0.01): significantly improved
